Laboratory results published in patent publication US10196386B2, “Compounds having muscarinic receptor antagonist and beta2 adrenergic receptor agonist activity” (priority 2016, dated 2019).

Experiments:
Human M3 receptor = target: T1, Human M3 receptor (Homo sapiens, UniProt P20309); test: biochemical; format: binding; settings: read-out: M3 Range
T1 construct: purchased Perkin Elmer

Human β2 adrenoceptor = target: T2, Human β2 adrenoceptor (Homo sapiens, UniProt P07550); test: β2 adrenoceptor radioligand binding assay
T2 construct: purchased Perkin Elmer
T2 sequence (P07550 whole entry): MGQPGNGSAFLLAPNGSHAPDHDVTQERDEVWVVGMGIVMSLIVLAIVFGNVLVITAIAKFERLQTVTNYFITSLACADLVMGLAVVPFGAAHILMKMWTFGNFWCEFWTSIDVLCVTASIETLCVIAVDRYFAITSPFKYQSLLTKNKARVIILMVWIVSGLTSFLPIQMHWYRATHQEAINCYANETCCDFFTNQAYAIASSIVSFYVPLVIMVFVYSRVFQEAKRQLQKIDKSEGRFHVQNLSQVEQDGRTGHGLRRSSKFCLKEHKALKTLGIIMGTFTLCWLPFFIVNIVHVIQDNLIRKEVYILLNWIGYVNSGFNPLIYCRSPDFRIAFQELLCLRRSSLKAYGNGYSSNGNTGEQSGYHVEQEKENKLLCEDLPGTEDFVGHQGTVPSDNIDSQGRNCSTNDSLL
Protocol: β2 Adrenoceptor Radioligand Binding Assay
Human β2 adrenoceptor membranes (7.5 ug/well) from Perkin Elmer were incubated with 0.3 nM 125-I Cyanopindolol with or without test compounds, or a saturating concentration of s-propranolol (2 μM) for the determination of non-specific binding. The assay was carried out in 96-well polypropylene plates in a volume of 200 ul. The assay buffer used was 25 mM HEPES, 0.5% BSA (w/v), 1 mM EDTA, 0.02% ascorbic acid (v/v), (pH 7.4). The final assay concentration of DMSO was 0.5% (v/v). The plates were sealed and incubated for 1 h at room temperature on an orbital shaker (slow speed). Membranes were harvested onto 96-well unifilter GF/C filter plates pre-treated with 0.5% polyethyleneimine (v/v), using a filter manifold, washed six times with 200 ul of wash buffer containing 10 mM HEPES and 500 mM NaCl. The plates were dried before addition of 50 μl of microscint-0, sealed then read in a Trilux Microbeta scintillation counter. IC50 values are determined from competition curves using a non-linear curve fitting program. Ki values were calculated from IC50 values by the Cheng and Prusoff equation.

T1 sequence (P20309 whole entry): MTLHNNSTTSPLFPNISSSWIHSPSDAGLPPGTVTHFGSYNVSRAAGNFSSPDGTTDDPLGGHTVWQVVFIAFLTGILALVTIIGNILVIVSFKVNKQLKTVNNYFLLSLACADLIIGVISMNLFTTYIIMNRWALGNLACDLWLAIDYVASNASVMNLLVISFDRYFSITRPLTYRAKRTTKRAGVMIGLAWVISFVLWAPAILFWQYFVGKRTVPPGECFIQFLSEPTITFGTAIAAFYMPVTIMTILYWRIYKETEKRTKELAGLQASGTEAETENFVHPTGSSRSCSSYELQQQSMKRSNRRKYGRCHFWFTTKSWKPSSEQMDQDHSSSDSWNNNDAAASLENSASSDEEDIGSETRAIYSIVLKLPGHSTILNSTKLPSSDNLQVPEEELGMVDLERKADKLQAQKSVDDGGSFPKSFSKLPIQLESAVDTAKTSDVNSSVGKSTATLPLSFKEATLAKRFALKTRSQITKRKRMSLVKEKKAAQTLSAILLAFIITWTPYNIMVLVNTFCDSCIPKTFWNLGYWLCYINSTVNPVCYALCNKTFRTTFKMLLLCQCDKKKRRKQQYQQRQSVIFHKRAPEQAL

Structure (SMILES) | IC50 (Human M3 receptor) | IC50 (Human β2 adrenoceptor)
O=C(NCc1ccc(-c2cccc([C@](O)(C(=O)OCC3CCN(Cc4ccccc4)CC3)c3ccccc3)c2)s1)c1ccc(CNC[C@H](O)c2ccc(O)c3[nH]c(=O)ccc23)cc1Cl [Compound 1, (1-Benzylpiperidin-4-yl)methyl (S)-2-(3-(5-((2-chloro-4-((((R)-2-hydroxy-2-(8-hydroxy-2-oxo-1,2-dihydroquinolin-5-yl)ethyl)amino)methyl)benzamido-)methyl)thiophen-2-yl)phenyl)-2-hydroxy-2-phenylacetate] | 0.3 to 3 nM | < 0.3 nM
O=C(NCc1ccc(-c2cccc([C@](O)(C(=O)OCC3CCN(Cc4ccccc4)CC3)c3ccccc3)c2)s1)c1ccc(CNC[C@H](O)c2ccc(O)c3[nH]c(=O)ccc23)cc1 [Compound 1A, (1-Benzylpiperidin-4-yl)methyl (S)-2-hydroxy-2-(3-(5-((4-((((R)-2-hydroxy-2-(8-hydroxy-2-oxo-1,2-dihydroquinolin-5-yl)ethyl)amino)methyl)benzamido)-methyl)thiophen-2-yl)phenyl)-2-phenylacetate] | 0.3 to 3 nM | < 0.3 nM
COc1cc(C(=O)NCc2ccc(-c3cccc([C@](O)(C(=O)OCC4CCN(Cc5ccccc5)CC4)c4ccccc4)c3)s2)ccc1CNC[C@H](O)c1ccc(O)c2[nH]c(=O)ccc12 [Compound 1B, (1-Benzylpiperidin-4-yl)methyl (S)-2-hydroxy-2-(3-(5-((4-((((R)-2-hydroxy-2-(8-hydroxy-2-oxo-1,2-dihydroquinolin-5-yl)ethyl)amino)methyl)-3-methoxybenzamido)methyl)thiophen-2-yl)phenyl)-2-phenylacetate] | 0.3 to 3 nM | < 0.3 nM
COc1cc(CNC[C@H](O)c2ccc(O)c3[nH]c(=O)ccc23)ccc1C(=O)NCc1ccc(-c2cccc([C@](O)(C(=O)OCC3CCN(Cc4ccccc4)CC3)c3ccccc3)c2)s1 [Compound 1C, (1-Benzylpiperidin-4-yl)methyl (S)-2-hydroxy-2-(3-(5-((4-((((R)-2-hydroxy-2-(8-hydroxy-2-oxo-1,2-dihydroquinolin-5-yl)ethyl)amino)methyl)-2-methoxybenzamido)methyl)thiophen-2-yl)phenyl)-2-phenylacetate] | 0.3 to 3 nM | 0.3 to 3 nM
COc1cc(C(=O)NCc2ccc(-c3cccc([C@](O)(C(=O)OCC4CCN(Cc5ccccc5)CC4)c4ccccc4)c3)s2)c(Cl)cc1CNC[C@H](O)c1ccc(O)c2[nH]c(=O)ccc12 [Compound 1D, (1-Benzylpiperidin-4-yl)methyl (S)-2-(3-(5-((2-chloro-4-((((R)-2-hydroxy-2-(8-hydroxy-2-oxo-1,2-dihydroquinolin-5-yl)ethyl)amino)methyl)-5-methoxybenzamido)methyl)thiophen-2-yl)phenyl)-2-hydroxy-2-phenylacetate] | 0.3 to 3 nM | < 0.3 nM
COc1cc(C(=O)NCc2ccc(-c3cccc([C@](O)(C(=O)OCC4CCN(Cc5ccccc5)CC4)c4ccccc4)c3)s2)c(F)cc1CNC[C@H](O)c1ccc(O)c2[nH]c(=O)ccc12 [Compound 1E, (1-Benzylpiperidin-4-yl)methyl (S)-2-(3-(5-((2-fluoro-4-((((R)-2-hydroxy-2-(8-hydroxy-2-oxo-1,2-dihydroquinolin-5-yl)ethyl)amino)methyl)-5-methoxybenzamido)methyl)thiophen-2-yl)phenyl)-2-hydroxy-2-phenylacetate] | 0.3 to 3 nM | < 0.3 nM
O=C(NCc1ccc(-c2cccc([C@](O)(C(=O)OCC3CCN(Cc4ccccc4)CC3)c3ccccc3)c2)s1)c1ccc(CNC[C@H](O)c2ccc(O)c3[nH]c(=O)ccc23)c(C(F)(F)F)c1 [Compound 1F, (1-Benzylpiperidin-4-yl)methyl (S)-2-hydroxy-2-(3-(5-((4-((((R)-2-hydroxy-2-(8-hydroxy-2-oxo-1,2-dihydroquinolin-5-yl)ethyl)amino)methyl)-3-(trifluoromethyl)benzamido)methyl)thiophen-2-yl)phenyl)-2-phenylacetate] | > 3 nM | 0.3 to 3 nM
O=C(NCc1ccc(-c2cccc([C@](O)(C(=O)OCC3CCN(Cc4ccccc4)CC3)c3ccccc3)c2)s1)c1ccc(CNC[C@H](O)c2ccc(O)c3[nH]c(=O)ccc23)cc1F [Compound 1G, (1-Benzylpiperidin-4-yl)methyl (S)-2-(3-(5-((2-fluoro-4-((((R)-2-hydroxy-2-(8-hydroxy-2-oxo-1,2-dihydroquinolin-5-yl)ethyl)amino)methyl)-benzamido)methyl)thiophen-2-yl)phenyl)-2-hydroxy-2-phenylacetate] | 0.3 to 3 nM | < 0.3 nM
O=C(NCc1ccc(-c2cccc([C@](O)(C(=O)OCC3CCN(Cc4ccccc4)CC3)c3ccccc3)c2)s1)c1ccc(CCNC[C@H](O)c2ccc(O)c3[nH]c(=O)ccc23)cc1 [Compound 1H, (1-Benzylpiperidin-4-yl)methyl (S)-2-hydroxy-2-(3-(5-((4-(2-(((R)-2-hydroxy-2-(8-hydroxy-2-oxo-1,2-dihydroquinolin-5-yl)ethyl)amino)ethyl)-benzamido)methyl)thiophen-2-yl)phenyl)-2-phenylacetate] | 0.3 to 3 nM | 0.3 to 3 nM
CCOc1cc(C(=O)NCc2ccc(-c3cccc([C@](O)(C(=O)OCC4CCN(Cc5ccccc5)CC4)c4ccccc4)c3)s2)ccc1CNC[C@H](O)c1ccc(O)c2[nH]c(=O)ccc12 [Compound 1I, (1-Benzylpiperidin-4-yl)methyl (S)-2-(3-(5-((3-ethoxy-4-((((R)-2-hydroxy-2-(8-hydroxy-2-oxo-1,2-dihydroquinolin-5-yl)ethyl)amino)methyl)-benzamido)methyl)thiophen-2-yl)phenyl)-2-hydroxy-2-phenylacetate] | 0.3 to 3 nM | 0.3 to 3 nM
O=C(NCc1ccc(-c2cccc([C@](O)(C(=O)OCC3CCN(Cc4ccccc4)CC3)c3ccccc3)c2)s1)c1ccc(CNC[C@H](O)c2ccc(O)c3[nH]c(=O)ccc23)c(F)c1 [Compound 1J, (1-Benzylpiperidin-4-yl)methyl (S)-2-(3-(5-((3-fluoro-4-((((R)-2-hydroxy-2-(8-hydroxy-2-oxo-1,2-dihydroquinolin-5-yl)ethyl)amino)methyl)-benzamido)methyl)thiophen-2-yl)phenyl)-2-hydroxy-2-phenylacetate] | 0.3 to 3 nM | < 0.3 nM
COc1c(CNC[C@H](O)c2ccc(O)c3[nH]c(=O)ccc23)ccc(C(=O)NCc2ccc(-c3cccc([C@](O)(C(=O)OCC4CCN(Cc5ccccc5)CC4)c4ccccc4)c3)s2)c1F [Compound 1K, (1-Benzylpiperidin-4-yl)methyl (S)-2-(3-(5-((2-fluoro-4-((((R)-2-hydroxy-2-(8-hydroxy-2-oxo-1,2-dihydroquinolin-5-yl)ethyl)amino)methyl)-3-methoxybenzamido)methyl)thiophen-2-yl)phenyl)-2-hydroxy-2-phenylacetate] | 0.3 to 3 nM | < 0.3 nM
O=C(NCc1ccc(-c2cccc([C@](O)(C(=O)OCC3CCN(Cc4ccccc4)CC3)c3ccccc3)c2)s1)c1ccc(CNC[C@H](O)c2ccc(O)c3[nH]c(=O)ccc23)nc1 [Compound 1L, (1-Benzylpiperidin-4-yl)methyl (S)-2-hydroxy-2-(3-(5-((6-((((R)-2-hydroxy-2-(8-hydroxy-2-oxo-1,2-dihydroquinolin-5-yl)ethyl)amino)methyl)-nicotinamido)methyl)thiophen-2-yl)phenyl)-2-phenylacetate] | 0.3 to 3 nM | < 0.3 nM
COc1cc(C(=O)NCc2ccc(-c3cccc([C@](O)(C(=O)OCC4CCN(Cc5ccccc5)CC4)c4ccccc4)c3)s2)cc(F)c1CNC[C@H](O)c1ccc(O)c2[nH]c(=O)ccc12 [Compound 1M, (1-Benzylpiperidin-4-yl)methyl (S)-2-(3-(5-((3-fluoro-4-((((R)-2-hydroxy-2-(8-hydroxy-2-oxo-1,2-dihydroquinolin-5-yl)ethyl)amino)methyl)-5-methoxybenzamido)methyl)thiophen-2-yl)phenyl)-2-hydroxy-2-phenylacetate] | 0.3 to 3 nM | 0.3 to 3 nM
CN1CCC(OC(=O)[C@](O)(c2ccccc2)c2cccc(-c3ccc(CNC(=O)c4ccc(CNC[C@H](O)c5ccc(O)c6[nH]c(=O)ccc56)cc4)s3)c2)CC1 [Compound 2, 1-Methylpiperidin-4-yl (S)-2-hydroxy-2-(3-(5-((4-((((R)-2-hydroxy-2-(8-hydroxy-2-oxo-1,2-dihydroquinolin-5-yl)ethyl)amino)methyl)benzamido)-methyl)thiophen-2-yl)phenyl)-2-phenylacetate] |  | < 0.3 nM
O=C(NCc1ccc(-c2cccc([C@](O)(C(=O)OC[C@H]3CCCN(Cc4ccccc4)C3)c3ccccc3)c2)s1)c1ccc(CNC[C@H](O)c2ccc(O)c3[nH]c(=O)ccc23)cc1 [Compound 2C, ((S)-1-Benzylpiperidin-3-yl)methyl (S)-2-hydroxy-2-(3-(5-((4-((((R)-2-hydroxy-2-(8-hydroxy-2-oxo-1,2-dihydroquinolin-5-yl)ethyl)amino)-methyl)benzamido)methyl)thiophen-2-yl)phenyl)-2-phenylacetate] |  | 0.3 to 3 nM
O=C(NCc1ccc(-c2cccc([C@](O)(C(=O)OC3CCN(Cc4ccccc4)CC3)c3ccccc3)c2)s1)c1ccc(CNC[C@H](O)c2ccc(O)c3[nH]c(=O)ccc23)cc1 [Compound 2F, 1-Benzylpiperidin-4-yl (S)-2-hydroxy-2-(3-(5-((4-((((R)-2-hydroxy-2-(8-hydroxy-2-oxo-1,2-dihydroquinolin-5-yl)ethyl)amino)methyl)-benzamido)methyl)thiophen-2-yl)phenyl)-2-phenylacetate] |  | < 0.3 nM
